Laboratory results reported in patent US20050175550A1, “Compositions for oral use” (priority 2000, published 2005).
≈ marks a conversion by molar mass, not a printed value.

How the values were obtained:
Assay in all cases: MIC by agar plate dilution method on standard strains (Example 3)
Assay type in all cases: cell-based
Conditions in all cases: read-out: MIC
[1] = test system: Streptococcus agalactiae ATCC13813
Experimental: (§1) Drug solutions at a concentration 10 times as high as the maximum applicable concentration were prepared as original solutions of test drugs given in Table 2 (as to solvents used for this purpose, reference should be made also to Table 2). Serial two-fold dilution series of the original solutions were prepared at desired stages, and 1 ml each of the diluted drug solutions was added to 9 ml of media given in Table 3 to prepare drug plates. […] • 1) Bacterial solutions stocked at −80° C. were inoculated on agar media (as to media used, reference should be made to Table 3), and then incubated at 37° C. overnight. When desired, subculturing was conducted once more on the same agar media (by overnight incubation at 37° C.). • 2) Colonies growing on the agar media were sampled by a platinum loop, suspended in liquid media (reference should be made to Table 3) and statically incubated at 37° C. for 18 hours (preculturing). • 3) Preculturing was continued up to McFarland 0.5 (McFarland 0.5=about 10^8 CFU/ml), and then the culture broths were diluted with Muellar Hinton Broth to make 10^6 CFU/ml. 5 μl each of the diluted solutions were inoculated on the above-mentioned drug plates by an inoculator Microplanter. […] Thus, bacterial solutions at about 10^8 CFU/ml can be easily prepared by use of McFarland 0.5. Bacterial solutions at such a turbidity are commercially available, but can be easily prepared.

[2] = test system: Streptococcus pneumoniae ATCC6302
Experimental: as §1

[3] = test system: Enterococcus faecium ATCC19434
Experimental: as §1

[4] = test system: Moraxella (Branhamella) catarrhalis ATCC43617
Experimental: as §1

[5] = test system: Pseudomonas aeruginosa ATCC27853
Experimental: as §1

[6] = test system: Staphylococcus aureus ATCC29247
Experimental: as §1

[7] = test system: Haemophilus influenzae ATCC49766
Experimental: as §1

[8] = test system: Streptococcus pyogenes ATCC12385
Experimental: as §1

[9] = test system: Streptococcus pyogenes ATCC12344
Experimental: as §1

[10] = test system: Streptococcus pneumoniae ATCC6303
Experimental: as §1

[11] = test system: Staphylococcus aureus ATCC6538P
Experimental: as §1

[12] = test system: Micrococcus luteus ATCC9341
Experimental: as §1

[13] = test system: Streptococcus pneumoniae ATCC49619
Experimental: as §1

[14] = test system: Klebsiella pneumoniae ATCC700603
Experimental: as §1

[15] = test system: Escherichia coli ATCC35218
Experimental: as §1

`CN(C)[C@@H]1C(O)=C(C(N)=O)C(=O)[C@@]2(O)C(O)=C3C(=O)c4c(O)cccc4[C@@](C)(O)[C@H]3C[C@@H]12` [TC, Tetracycline] showed an MIC [1] of 0.2 µg/mL (≈ 0.45 µM), an MIC [2] of 0.2 µg/mL (≈ 0.45 µM) and an MIC [3] of 0.2 µg/mL (≈ 0.45 µM). The MIC [4] was 0.2 µg/mL (≈ 0.45 µM), the MIC [5] was 12.5 µg/mL (≈ 28.1 µM) and the MIC [6] was 0.78 µg/mL (≈ 1.76 µM). For the same compound, the MIC [7] was 0.78 µg/mL (≈ 1.76 µM), the MIC [8] was 0.2 µg/mL (≈ 0.45 µM) and the MIC [9] was 0.2 µg/mL (≈ 0.45 µM). The MIC [10] was 0.1 µg/mL (≈ 0.225 µM), the MIC [11] was 0.2 µg/mL (≈ 0.45 µM) and the MIC [12] was 0.78 µg/mL (≈ 1.76 µM). It also gave an MIC [13] of 0.1 µg/mL (≈ 0.225 µM), an MIC [14] of 50 µg/mL (≈ 113 µM) and an MIC [15] of 1.56 µg/mL (≈ 3.51 µM).
